In ChEMBL document CHEMBL3860096, “Fragment-to-Lead Medicinal Chemistry Publications in 2015” (J Med Chem, 2017):

Legend:
Collagenase 3 = Collagenase 3 (Homo sapiens, UniProt P45452); assay: Inhibition of human recombinant MMP13 using thiopeptide as chromogenic substrate by colorimetric assay
[1] = target: DNA repair protein RAD51 homolog 1 (Homo sapiens, UniProt Q06609); assay: Binding affinity to of humanised RAD51 C-terminal ATPase domain (with deletion of L2 loop residues 288 to 314) from Pyrococcus furiosus expressed in Escherichia coli by ITC method
Sequence of DNA repair protein RAD51 homolog 1 (Q06609 2-339 limits assumed): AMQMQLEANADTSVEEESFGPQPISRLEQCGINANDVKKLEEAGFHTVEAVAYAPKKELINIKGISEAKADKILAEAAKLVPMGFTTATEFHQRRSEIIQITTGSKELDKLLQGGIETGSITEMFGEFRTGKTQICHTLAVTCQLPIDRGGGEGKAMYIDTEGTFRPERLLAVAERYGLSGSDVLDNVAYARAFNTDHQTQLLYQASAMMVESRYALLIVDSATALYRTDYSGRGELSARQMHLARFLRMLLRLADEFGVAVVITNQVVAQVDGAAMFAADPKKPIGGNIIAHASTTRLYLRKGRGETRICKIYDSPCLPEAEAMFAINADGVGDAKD

Coagulation factor XI = Coagulation factor XI (Homo sapiens, UniProt P03951); assay: Inhibition of human factor 11a using pyroGlu-Pro-Arg-pNA.HCl substrate
Sequence of Coagulation factor XI (P03951 19-387 limits assumed): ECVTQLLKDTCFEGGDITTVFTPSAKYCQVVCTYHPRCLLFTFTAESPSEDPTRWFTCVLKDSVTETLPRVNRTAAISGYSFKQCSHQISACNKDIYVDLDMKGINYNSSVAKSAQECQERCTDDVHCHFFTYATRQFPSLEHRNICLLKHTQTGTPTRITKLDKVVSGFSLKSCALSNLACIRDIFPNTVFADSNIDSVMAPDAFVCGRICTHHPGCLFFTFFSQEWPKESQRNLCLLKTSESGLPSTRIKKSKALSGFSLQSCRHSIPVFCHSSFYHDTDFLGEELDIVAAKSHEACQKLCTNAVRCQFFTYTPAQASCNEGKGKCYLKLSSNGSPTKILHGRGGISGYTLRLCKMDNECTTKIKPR
Sequence of Coagulation factor XI (P03951 388-625 limits assumed): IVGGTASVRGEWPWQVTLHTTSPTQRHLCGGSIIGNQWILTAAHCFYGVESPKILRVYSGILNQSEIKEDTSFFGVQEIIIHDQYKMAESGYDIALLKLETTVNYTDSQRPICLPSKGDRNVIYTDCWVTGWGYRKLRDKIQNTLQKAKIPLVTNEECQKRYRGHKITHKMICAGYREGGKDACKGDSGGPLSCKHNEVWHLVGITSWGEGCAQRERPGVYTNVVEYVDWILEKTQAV

[2] = target: Proto-oncogene tyrosine-protein kinase receptor Ret (Homo sapiens) (UniProt P07949); assay: Inhibition of human recombinant RET assessed as residual activity at 100 uM by microfluidics separation based assay
Sequence of Proto-oncogene tyrosine-protein kinase receptor Ret (Homo sapiens) (P07949 whole entry): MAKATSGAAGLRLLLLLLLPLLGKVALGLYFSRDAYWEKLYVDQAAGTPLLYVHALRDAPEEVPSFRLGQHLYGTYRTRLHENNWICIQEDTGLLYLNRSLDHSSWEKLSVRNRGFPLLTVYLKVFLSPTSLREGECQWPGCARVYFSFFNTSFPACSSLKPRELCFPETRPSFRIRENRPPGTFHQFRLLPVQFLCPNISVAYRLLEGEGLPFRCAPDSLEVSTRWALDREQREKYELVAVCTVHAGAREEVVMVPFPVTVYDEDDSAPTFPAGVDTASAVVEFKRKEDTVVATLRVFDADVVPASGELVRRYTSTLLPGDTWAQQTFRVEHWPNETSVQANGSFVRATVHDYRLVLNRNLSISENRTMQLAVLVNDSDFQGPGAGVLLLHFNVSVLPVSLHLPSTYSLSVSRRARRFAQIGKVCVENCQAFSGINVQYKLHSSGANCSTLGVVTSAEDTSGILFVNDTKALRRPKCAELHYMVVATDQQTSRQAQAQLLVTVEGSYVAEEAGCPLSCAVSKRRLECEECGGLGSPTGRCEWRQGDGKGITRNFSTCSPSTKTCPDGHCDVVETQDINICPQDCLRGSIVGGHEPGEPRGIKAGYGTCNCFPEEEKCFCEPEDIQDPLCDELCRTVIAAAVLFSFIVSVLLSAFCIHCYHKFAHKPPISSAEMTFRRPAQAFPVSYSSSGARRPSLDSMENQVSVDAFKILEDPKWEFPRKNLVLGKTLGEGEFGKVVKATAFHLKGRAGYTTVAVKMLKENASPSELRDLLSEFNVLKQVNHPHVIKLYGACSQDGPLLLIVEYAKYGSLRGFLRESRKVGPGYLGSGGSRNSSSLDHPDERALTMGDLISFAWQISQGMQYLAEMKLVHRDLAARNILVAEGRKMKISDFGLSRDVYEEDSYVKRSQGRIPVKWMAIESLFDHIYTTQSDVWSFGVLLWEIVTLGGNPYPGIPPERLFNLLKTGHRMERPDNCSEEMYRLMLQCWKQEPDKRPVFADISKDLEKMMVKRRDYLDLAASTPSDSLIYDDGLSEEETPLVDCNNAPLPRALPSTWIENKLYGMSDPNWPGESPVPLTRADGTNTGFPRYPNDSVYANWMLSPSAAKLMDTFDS

[3] = Inhibition of Streptococcus pneumoniae NAD+-dependent DNA ligase A
[4] = Inhibition of Haemophilus influenzae NAD+-dependent DNA ligase A
[5] = Inhibition of DNA gyrase B (unknown origin)

## COc1cccc(CNC(=O)C#Cc2cn(Cc3ccc(C(=O)O)cc3)c(=O)[nH]c2=O)c1
Collagenase 3
  IC50: 11 nM

## O=S(=O)(NCCc1c[nH]c2ccccc12)c1cc(Br)c(Cl)s1
[1]
  Kd: 1300 nM

## O=C(N[C@@H](Cc1ccccc1)C(=O)NCc1cc2cc(Cl)ccc2[nH]c1=O)c1ccc2[nH]c(=O)cc(O)c2c1
Coagulation factor XI
  Ki: 0.5 nM

## Brc1ccc2c(c1)ncn2-c1ccccc1
[2]
  Activity: 28%

## COC(=O)[C@@H](N)Cc1c[nH]c2ccccc12 [TRYPTOPHAN METHYL ESTER]
[1]
  Kd: 570000 nM

## CC(C)(C)c1nc(-c2ccc[nH]2)c2cc(C(N)=O)c(N)nc2n1
[3]
  IC50: 100 nM
[4]
  IC50: 100 nM

## Cc1ccc2cc(C(N)=O)cc(O)c2n1
[3]
  IC50: > 500000 nM
[4]
  IC50: > 500000 nM

## Cc1cc(-c2cc(NC(=O)c3ccc(C(=O)O)cc3C)[nH]n2)cc(C(F)(F)F)c1
[5]
  IC50: 160 nM
